Experimental data published in ChEMBL document CHEMBL4837249, “Discovery of Potent Antiallergic Agents Based on an o-Aminopyridinyl Alkynyl Scaffold” (J Med Chem, 2021).

Columns and labels:
[1] = target: Tyrosine-protein kinase HCK (Homo sapiens, UniProt P08631); experiment: Inhibition of human recombinant HCK (230 to 497) by radiometric scintillation counting analysis
[2] = Therapeutic index, ratio of CC50 for rat RBL2H3 cells to IC50 for Antiallergic activity against anti-DNP-IgE sensitized rat RBL-2H3 cells; type: toxicity; settings: read-out: TI
[3] = target: Macrophage colony-stimulating factor 1 receptor (Homo sapiens, UniProt P07333); experiment: Inhibition of human recombinant CSF1R using ATP/Ulight-TK peptide incubated for 15 mins
[4] = target: T1, Tyrosine-protein kinase Blk (Homo sapiens, UniProt P51451); experiment: Inhibition of human full length recombinant BLK at 5 nM by radiometric scintillation counting analysis relative to control
Target sequence in this assay (P51451 2-505 limits assumed): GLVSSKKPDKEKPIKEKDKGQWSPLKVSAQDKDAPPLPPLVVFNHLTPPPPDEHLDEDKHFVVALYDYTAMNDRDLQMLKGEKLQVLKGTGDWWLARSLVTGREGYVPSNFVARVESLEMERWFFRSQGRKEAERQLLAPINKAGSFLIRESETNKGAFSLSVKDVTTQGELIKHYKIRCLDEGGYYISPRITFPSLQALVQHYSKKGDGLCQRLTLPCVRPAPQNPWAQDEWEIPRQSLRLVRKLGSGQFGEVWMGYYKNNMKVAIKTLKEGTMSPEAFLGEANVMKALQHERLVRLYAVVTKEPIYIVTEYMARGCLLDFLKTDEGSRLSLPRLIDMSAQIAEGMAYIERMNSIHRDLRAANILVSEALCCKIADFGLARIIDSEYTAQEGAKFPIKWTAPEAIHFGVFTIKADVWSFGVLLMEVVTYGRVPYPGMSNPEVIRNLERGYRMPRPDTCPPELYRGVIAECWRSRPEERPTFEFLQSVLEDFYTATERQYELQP

[5] = target: Tyrosine-protein kinase BTK (Homo sapiens) (UniProt Q06187); experiment: Inhibition of human full length recombinant BTK at 5 nM by radiometric scintillation counting analysis relative to control
[6] = target: Tyrosine-protein kinase Fgr (Homo sapiens, UniProt P09769); experiment: Inhibition of human recombinant FGR (456 to 770) at 5 nM by radiometric scintillation counting analysis relative to control
[7] = target: T2, Inhibitor of nuclear factor kappa-B kinase subunit alpha (Homo sapiens) (UniProt O15111); experiment: Inhibition of human full length recombinant IKKalpha at 5 nM by radiometric scintillation counting analysis relative to control
T2 sequence (whole entry): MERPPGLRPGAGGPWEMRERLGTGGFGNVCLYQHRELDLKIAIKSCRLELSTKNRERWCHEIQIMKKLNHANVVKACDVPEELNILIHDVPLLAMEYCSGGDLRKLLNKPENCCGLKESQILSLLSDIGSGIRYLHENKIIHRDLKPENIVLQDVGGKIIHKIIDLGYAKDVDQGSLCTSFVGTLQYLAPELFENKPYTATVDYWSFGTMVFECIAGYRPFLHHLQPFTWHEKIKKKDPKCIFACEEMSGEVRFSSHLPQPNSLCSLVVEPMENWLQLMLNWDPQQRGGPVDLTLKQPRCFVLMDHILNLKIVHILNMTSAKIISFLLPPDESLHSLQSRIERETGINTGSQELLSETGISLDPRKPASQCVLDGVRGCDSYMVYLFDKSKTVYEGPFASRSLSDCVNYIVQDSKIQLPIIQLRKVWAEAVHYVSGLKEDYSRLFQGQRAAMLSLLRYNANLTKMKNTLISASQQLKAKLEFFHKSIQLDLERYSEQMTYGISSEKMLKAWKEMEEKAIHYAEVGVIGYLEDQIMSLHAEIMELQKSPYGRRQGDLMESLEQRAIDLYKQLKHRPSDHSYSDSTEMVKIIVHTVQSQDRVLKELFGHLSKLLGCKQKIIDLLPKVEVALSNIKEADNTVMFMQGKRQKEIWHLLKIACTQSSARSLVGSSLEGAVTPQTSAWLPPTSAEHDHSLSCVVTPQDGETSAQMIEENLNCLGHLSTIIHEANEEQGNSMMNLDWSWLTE

[8] = target: T3, Tyrosine-protein kinase Lck (Homo sapiens, UniProt P06239); experiment: Inhibition of human full length recombinant LCK at 5 nM by radiometric scintillation counting analysis relative to control
[9] = target: Tyrosine-protein kinase Lyn (Homo sapiens, UniProt P07948); experiment: Inhibition of human full length recombinant LYN at 5 nM by radiometric scintillation counting analysis relative to control
[10] = target: T3, Tyrosine-protein kinase Lck; experiment: Inhibition of human full length recombinant LCK at 50 nM by radiometric scintillation counting analysis relative to control
[11] = target: T4, Tyrosine-protein kinase ZAP-70 (Homo sapiens) (UniProt P43403); experiment: Inhibition of human full length recombinant ZAP70 at 50 nM by radiometric scintillation counting analysis relative to control
T4 sequence (whole entry): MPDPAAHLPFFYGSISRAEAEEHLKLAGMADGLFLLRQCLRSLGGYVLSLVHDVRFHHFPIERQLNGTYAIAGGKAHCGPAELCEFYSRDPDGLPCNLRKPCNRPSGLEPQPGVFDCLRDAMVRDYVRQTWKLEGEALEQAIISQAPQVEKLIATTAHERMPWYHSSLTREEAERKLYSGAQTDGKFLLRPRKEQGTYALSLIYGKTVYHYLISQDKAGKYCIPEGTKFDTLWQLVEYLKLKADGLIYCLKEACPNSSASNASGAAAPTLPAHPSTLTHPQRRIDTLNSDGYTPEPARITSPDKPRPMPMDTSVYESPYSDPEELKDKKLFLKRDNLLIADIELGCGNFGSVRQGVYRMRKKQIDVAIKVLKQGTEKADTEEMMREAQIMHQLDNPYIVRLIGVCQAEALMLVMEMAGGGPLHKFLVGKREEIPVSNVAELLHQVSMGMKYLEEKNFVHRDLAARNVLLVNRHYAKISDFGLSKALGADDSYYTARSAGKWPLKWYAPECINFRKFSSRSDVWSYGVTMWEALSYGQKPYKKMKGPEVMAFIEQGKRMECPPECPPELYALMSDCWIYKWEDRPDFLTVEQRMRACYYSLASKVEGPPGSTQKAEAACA

[12] = target: T1, Tyrosine-protein kinase Blk; experiment: Inhibition of human full length recombinant BLK at 500 nM by radiometric scintillation counting analysis relative to control
Target sequence in this assay (P51451 2-505 limits assumed): as the sequence (P51451 2-505 limits assumed) above

[13] = target: T1, Tyrosine-protein kinase Blk; experiment: Inhibition of human full length recombinant BLK by radiometric scintillation counting analysis
[14] = target: T5, Tyrosine-protein kinase Yes (Homo sapiens, UniProt P07947); experiment: Inhibition of human full length recombinant Yes by radiometric scintillation counting analysis
[15] = target: Cytoplasmic tyrosine-protein kinase BMX (Homo sapiens, UniProt P51813); experiment: Inhibition of human full length recombinant Bmx by radiometric scintillation counting analysis
TXK = TXK (Homo sapiens, UniProt P42681); experiment: Inhibition of human recombinant Txk (256 to end) by radiometric scintillation counting analysis
[16] = target: Tyrosine-protein kinase ABL1 (Homo sapiens, UniProt P00519); experiment: Inhibition of human recombinant ABL1 using ATP/Ulight-TK peptide incubated for 15 mins
[17] = target: Tyrosine-protein kinase Srms (Homo sapiens, UniProt Q9H3Y6); experiment: Inhibition of human SRMS by radiometric scintillation counting analysis
[18] = target: Tyrosine-protein kinase JAK1 (Homo sapiens) (UniProt P23458); experiment: Inhibition of human recombinant JAK1 at 500 nM radiometric scintillation counting analysis relative to control
[19] = target: T5, Tyrosine-protein kinase Yes; experiment: Inhibition of human full length recombinant Yes at 5 nM by radiometric scintillation counting analysis relative to control

Sequence of Tyrosine-protein kinase Lyn (P07948 2-512 limits assumed): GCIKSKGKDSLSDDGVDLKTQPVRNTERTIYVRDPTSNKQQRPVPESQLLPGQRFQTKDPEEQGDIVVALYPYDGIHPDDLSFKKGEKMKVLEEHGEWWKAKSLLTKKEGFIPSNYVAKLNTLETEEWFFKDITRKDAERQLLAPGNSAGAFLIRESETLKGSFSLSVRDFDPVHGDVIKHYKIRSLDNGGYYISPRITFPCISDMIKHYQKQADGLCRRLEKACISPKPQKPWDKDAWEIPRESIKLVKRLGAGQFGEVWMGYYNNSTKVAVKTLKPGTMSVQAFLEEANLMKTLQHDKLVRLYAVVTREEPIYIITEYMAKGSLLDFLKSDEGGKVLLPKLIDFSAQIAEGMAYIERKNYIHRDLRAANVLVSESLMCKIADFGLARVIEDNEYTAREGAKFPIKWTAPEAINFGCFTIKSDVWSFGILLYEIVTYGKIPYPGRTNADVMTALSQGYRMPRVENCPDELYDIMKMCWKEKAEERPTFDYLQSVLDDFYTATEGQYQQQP
Sequence of Tyrosine-protein kinase Fgr (P09769 2-529 limits assumed): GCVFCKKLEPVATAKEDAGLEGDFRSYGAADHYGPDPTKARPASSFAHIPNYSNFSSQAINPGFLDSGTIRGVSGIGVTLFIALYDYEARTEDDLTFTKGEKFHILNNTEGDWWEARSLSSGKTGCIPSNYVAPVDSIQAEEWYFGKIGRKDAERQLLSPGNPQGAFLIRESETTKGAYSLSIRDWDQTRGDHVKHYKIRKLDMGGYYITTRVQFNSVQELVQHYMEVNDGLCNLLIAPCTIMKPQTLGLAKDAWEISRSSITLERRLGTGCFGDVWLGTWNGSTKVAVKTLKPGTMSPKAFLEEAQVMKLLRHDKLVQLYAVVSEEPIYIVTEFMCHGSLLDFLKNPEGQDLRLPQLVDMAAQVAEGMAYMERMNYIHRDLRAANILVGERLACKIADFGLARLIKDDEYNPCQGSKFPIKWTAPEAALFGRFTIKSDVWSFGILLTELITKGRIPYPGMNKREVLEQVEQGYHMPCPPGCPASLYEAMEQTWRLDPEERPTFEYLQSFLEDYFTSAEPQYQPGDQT
Sequence of Tyrosine-protein kinase JAK1 (Homo sapiens) (P23458 whole entry): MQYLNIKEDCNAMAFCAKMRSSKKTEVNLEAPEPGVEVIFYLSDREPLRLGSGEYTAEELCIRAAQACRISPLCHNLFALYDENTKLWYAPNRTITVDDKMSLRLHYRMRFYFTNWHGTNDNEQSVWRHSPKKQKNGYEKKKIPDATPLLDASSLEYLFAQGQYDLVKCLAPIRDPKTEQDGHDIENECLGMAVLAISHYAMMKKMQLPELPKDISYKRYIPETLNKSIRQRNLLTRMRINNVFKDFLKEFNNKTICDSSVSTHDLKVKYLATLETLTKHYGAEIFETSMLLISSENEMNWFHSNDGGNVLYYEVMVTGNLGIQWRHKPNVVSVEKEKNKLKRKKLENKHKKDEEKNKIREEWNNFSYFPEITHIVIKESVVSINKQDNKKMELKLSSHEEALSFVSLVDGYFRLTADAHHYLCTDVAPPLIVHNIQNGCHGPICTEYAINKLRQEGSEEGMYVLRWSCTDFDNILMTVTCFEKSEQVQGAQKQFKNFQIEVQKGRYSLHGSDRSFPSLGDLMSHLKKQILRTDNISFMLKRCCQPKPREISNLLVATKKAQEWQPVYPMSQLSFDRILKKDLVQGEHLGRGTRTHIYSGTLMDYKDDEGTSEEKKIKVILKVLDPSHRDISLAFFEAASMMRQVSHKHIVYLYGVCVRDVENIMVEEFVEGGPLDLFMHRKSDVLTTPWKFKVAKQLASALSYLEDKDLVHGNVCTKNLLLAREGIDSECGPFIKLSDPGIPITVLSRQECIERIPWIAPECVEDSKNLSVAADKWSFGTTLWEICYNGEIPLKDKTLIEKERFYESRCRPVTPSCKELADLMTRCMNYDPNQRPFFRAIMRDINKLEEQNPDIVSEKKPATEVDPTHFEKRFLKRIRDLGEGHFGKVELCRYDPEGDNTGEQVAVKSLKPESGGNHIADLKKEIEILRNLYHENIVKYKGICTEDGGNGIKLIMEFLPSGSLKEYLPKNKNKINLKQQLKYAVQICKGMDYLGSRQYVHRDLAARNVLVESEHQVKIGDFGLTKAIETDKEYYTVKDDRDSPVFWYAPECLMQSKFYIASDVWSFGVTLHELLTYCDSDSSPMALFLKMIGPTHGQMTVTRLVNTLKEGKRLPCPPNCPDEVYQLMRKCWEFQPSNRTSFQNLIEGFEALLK
T3 sequence (P06239 2-509 limits assumed): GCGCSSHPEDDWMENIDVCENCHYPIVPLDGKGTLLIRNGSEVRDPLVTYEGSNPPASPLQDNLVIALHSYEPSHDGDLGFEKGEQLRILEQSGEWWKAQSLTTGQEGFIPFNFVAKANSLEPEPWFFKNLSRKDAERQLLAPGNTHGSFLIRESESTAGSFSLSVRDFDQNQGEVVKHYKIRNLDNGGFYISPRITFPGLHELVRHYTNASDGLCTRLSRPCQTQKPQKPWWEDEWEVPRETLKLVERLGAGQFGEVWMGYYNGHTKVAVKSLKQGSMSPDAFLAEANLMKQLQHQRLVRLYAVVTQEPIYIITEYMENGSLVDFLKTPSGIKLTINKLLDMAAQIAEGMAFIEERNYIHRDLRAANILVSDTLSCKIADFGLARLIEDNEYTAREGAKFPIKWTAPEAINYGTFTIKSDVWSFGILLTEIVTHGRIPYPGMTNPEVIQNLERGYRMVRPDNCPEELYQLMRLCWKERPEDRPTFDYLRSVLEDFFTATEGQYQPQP
Sequence of Tyrosine-protein kinase BTK (Homo sapiens) (Q06187 whole entry): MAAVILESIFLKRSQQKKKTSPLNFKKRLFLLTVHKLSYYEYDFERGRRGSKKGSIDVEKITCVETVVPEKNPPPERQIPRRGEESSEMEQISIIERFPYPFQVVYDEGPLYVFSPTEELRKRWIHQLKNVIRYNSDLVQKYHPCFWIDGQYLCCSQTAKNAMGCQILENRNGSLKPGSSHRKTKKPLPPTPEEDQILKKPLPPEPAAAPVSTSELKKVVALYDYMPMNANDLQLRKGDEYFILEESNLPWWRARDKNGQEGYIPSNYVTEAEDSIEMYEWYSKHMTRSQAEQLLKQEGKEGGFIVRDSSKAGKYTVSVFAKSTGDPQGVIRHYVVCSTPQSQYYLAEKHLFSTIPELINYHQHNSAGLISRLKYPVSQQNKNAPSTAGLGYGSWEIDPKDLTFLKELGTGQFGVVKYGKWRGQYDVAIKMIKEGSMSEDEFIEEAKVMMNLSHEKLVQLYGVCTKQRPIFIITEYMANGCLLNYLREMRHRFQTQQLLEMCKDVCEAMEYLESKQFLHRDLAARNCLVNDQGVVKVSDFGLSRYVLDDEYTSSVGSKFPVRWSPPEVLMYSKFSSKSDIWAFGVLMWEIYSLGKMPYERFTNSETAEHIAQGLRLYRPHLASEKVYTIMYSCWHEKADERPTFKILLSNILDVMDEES
Sequence of Tyrosine-protein kinase ABL1 (P00519 whole entry): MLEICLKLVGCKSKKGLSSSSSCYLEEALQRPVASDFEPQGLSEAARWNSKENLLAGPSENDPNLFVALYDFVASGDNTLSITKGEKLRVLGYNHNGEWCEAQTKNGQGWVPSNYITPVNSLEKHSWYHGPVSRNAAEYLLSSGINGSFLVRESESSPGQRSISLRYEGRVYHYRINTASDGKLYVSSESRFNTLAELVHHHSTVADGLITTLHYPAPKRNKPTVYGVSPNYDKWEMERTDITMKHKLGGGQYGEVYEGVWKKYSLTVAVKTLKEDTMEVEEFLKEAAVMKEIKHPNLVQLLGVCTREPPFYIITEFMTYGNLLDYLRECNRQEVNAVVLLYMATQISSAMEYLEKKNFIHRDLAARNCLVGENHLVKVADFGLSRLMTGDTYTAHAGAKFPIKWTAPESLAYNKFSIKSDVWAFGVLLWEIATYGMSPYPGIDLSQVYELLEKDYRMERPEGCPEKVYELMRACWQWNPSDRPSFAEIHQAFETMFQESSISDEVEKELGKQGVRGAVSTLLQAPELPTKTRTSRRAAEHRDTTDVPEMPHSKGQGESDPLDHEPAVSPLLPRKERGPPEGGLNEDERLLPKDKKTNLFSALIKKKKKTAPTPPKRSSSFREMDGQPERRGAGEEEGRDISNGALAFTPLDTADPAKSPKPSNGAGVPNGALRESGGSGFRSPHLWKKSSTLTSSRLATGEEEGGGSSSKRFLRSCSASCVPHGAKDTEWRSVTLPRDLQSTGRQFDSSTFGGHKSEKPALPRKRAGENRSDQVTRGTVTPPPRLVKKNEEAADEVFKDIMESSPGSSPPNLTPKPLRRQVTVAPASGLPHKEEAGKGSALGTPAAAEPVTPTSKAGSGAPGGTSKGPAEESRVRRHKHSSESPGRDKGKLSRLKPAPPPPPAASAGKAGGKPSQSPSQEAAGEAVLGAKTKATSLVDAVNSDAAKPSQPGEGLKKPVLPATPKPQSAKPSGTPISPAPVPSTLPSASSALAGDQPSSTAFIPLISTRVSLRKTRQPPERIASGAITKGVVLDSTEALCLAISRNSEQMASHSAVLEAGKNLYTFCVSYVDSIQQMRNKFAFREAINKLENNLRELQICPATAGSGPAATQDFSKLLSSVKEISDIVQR

SMILES | IC50 [1] [nM] | selectivity ratio [2] | IC50 [3] [nM] | inhibition [4] [%] | inhibition [5] [%] | inhibition [6] [%] | inhibition [7] [%] | inhibition [8] [%] | inhibition [9] [%] | inhibition [10] [%] | inhibition [11] [%] | inhibition [12] [%] | IC50 [13] [nM] | IC50 [14] [nM] | IC50 [15] [nM] | IC50 (TXK) [nM] | IC50 [16] [nM] | IC50 [17] [nM] | inhibition [18] [%] | inhibition [19] [%]
Cc1ccc(C(=O)Nc2cc(C(F)(F)F)cc(C(F)(F)F)c2)cc1C#Cc1cc(-c2cnn(C)c2)cnc1N | 9 | 148 | 48 | 22 | 16 | 27 | 9 | 26 | 41 | 60 | 12 | 98 | 56 | 95 | 126 | 185 | 22 | 114 | 0 | 
Cc1ccc(C(=O)Nc2ccc(Cl)cc2Cl)cc1C#Cc1cc(-c2cnn(C)c2)cnc1N | 57 |  |  | 7 | 8 | 4 | 6 | 27 | 19 | 59 | 2 | 50 | > 1000 | > 1000 | > 1000 | > 1000 | 7 | > 1000 | -8 | -7
Cc1ccc(C(=O)Nc2ccc(OC(F)(F)F)cc2)cc1C#Cc1cc(-c2cnn(C)c2)cnc1N |  | 16.3 | 22 | 21 | -4 | 9 |  | 42 | 96 | 98 | 6 | 99 |  |  |  |  |  |  | -2 | 0
